The experiment deals with T1, USP28 (USP28-5(1-1077)-TEV-6*His; LifeSensors) (Homo sapiens, UniProt Q96RU2).
T1 construct: construct USP28 (USP28-5(1-1077)-TEV-6*His; LifeSensors); TEV cleavage site (C); 6xHis (C); purchased LifeSensors
T1 sequence (Q96RU2 1-1077): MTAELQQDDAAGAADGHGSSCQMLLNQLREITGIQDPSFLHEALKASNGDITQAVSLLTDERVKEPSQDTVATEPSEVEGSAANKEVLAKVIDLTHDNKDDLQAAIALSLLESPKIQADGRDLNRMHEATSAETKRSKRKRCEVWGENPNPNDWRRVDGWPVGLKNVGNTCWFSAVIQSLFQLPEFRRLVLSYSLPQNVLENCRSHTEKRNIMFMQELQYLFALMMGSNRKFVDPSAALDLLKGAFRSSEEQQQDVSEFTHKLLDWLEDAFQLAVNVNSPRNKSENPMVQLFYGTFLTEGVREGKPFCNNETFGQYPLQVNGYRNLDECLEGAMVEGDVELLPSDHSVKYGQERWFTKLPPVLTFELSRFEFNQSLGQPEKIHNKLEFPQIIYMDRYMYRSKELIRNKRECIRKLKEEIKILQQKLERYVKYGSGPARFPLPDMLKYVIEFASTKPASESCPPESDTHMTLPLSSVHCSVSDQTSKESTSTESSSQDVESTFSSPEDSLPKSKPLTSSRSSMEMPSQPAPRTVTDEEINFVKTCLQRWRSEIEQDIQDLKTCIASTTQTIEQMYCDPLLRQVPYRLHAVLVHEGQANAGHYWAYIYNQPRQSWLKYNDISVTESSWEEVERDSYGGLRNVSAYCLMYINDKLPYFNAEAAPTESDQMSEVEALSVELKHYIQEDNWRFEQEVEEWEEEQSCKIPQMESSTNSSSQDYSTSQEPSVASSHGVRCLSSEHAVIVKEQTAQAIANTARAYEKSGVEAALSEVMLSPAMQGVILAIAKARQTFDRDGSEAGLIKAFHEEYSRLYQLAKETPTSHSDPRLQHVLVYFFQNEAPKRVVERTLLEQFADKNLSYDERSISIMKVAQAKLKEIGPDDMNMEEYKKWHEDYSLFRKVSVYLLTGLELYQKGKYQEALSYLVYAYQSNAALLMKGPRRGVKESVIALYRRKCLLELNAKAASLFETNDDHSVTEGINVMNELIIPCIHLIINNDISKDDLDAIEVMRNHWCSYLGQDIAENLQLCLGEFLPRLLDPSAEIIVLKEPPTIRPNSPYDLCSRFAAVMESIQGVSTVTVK
Nature of the experiment: Ubiquitin-Rhodamine 110 Assay for USP28 Activity, Example A-1(b). The note with it: Ubiquitin-Rhodamine 110 assay, Example A-1(b). The format is biochemical. The gist of the method:
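Single-point screening used 10 μM compound with 90 min room-temperature incubation; follow-up dose-responses (25 μM top, 3-fold) used 75 pM USP28 1-1077 construct, 30 min compound preincubation, 25 nM Ub-Rh110, 20 min reaction, citric acid quench. Rh110 fluorescence normalised to no-enzyme and DMSO controls; IC50 from 4-parameter logistic fit.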

Structures are written as SMILES.

Consider `CC(=O)N1CCCc2cc(C(=O)N[C@H]3COc4cc(N5CCNCC5)ccc4C3)ccc21` [Example 459, (R)-1-acetyl-N-(7-(piperazin-1-yl)chroman-3-yl)-1,2,3,4-tetrahydroquinoline-6-carboxamide], for which the “USP28 A-1(b) IC50 range” value was “+ (>2 μM)”. On to `O=C(N[C@H]1COc2cc(N3CCNCC3)ccc2C1)c1cnn2ccccc12` [Example 460, (R)-N-(7-(piperazin-1-yl)chroman-3-yl)pyrazolo[1,5-a]pyridine-3-carboxamide], for which the “USP28 A-1(b) IC50 range” value is given as “+ (>2 μM)”. As for `O=C(N[C@H]1COc2cc(N3CCNCC3)ccc2C1)c1cnn2cc(Cl)ccc12` [Example 462, (R)-6-chloro-N-(7-(piperazin-1-yl)chroman-3-yl)pyrazolo[1,5-a]pyridine-3-carboxamide], the entry is “+ (>2 μM)”. `Cc1cc(C)n2ncc(C(=O)N[C@H]3COc4cc(N5CCNCC5)ccc4C3)c2n1` [Example 463, (R)-5,7-dimethyl-N-(7-(piperazin-1-yl)chroman-3-yl)pyrazolo[1,5-a]pyrimidine-3-carboxamide]: the “USP28 A-1(b) IC50 range” value is given as “+ (>2 μM)”. In the case of `O=C(N[C@H]1COc2cc(N3CCNCC3)ccc2C1)c1ccc(NCc2cccc(Cl)c2)nc1` [Example 467, (R)-6-((3-chlorobenzyl)amino)-N-(7-(piperazin-1-yl)chroman-3-yl)nicotinamide] it was “++ (0.2-2 μM)”. In the case of `O=C(N[C@H]1COc2cc(N3CCNCC3)ccc2C1)c1ccc(NCc2cccnc2)nc1` [Example 468, (R)-N-(7-(piperazin-1-yl)chroman-3-yl)-6-((pyridin-3-ylmethyl)amino)nicotinamide] it was “+ (>2 μM)”.

Consider `O=C(N[C@H]1COc2cc(N3CCNCC3)ccc2C1)c1ccc(NCc2cccc(C(F)(F)F)c2)nc1` [Example 469, (R)-N-(7-(piperazin-1-yl)chroman-3-yl)-6-((3-(trifluoromethyl)benzyl)amino)nicotinamide], for which the “USP28 A-1(b) IC50 range” value is recorded as “++ (0.2-2 μM)”. In the case of `O=C(N[C@H]1COc2cc(N3CCNCC3)ccc2C1)c1ccc(NCc2ccccn2)nc1` [Example 470, (R)-N-(7-(piperazin-1-yl)chroman-3-yl)-6-((pyridin-2-ylmethyl)amino)nicotinamide] it was “+ (>2 μM)”; in that of `O=C(N[C@H]1COc2cc(N3CCNCC3)ccc2C1)c1ccc(NCc2ccc3c(c2)OCCO3)nc1` [Example 471, (R)-6-(((2,3-dihydrobenzo[b][1,4]dioxin-6-yl)methyl)amino)-N-(7-(piperazin-1-yl)chroman-3-yl)nicotinamide], “+ (>2 μM)”. In the case of `O=C(N[C@H]1COc2cc(N3CCNCC3)ccc2C1)c1ccc(NCc2ccc3c(c2)CCO3)nc1` [Example 472, (R)-6-(((2,3-dihydrobenzofuran-5-yl)methyl)amino)-N-(7-(piperazin-1-yl)chroman-3-yl)nicotinamide] it was “++ (0.2-2 μM)”; in that of `CC(=O)Nc1cccc(CNc2ccc(C(=O)N[C@H]3COc4cc(N5CCNCC5)ccc4C3)cn2)c1` [Example 473, (R)-6-((3-acetamidobenzyl)amino)-N-(7-(piperazin-1-yl)chroman-3-yl)nicotinamide], “+ (>2 μM)”.

Source of the values: patent publication US11524966B1 (Valo Early Discovery, Inc., priority 2017, dated 2022).
